The nature of this experiment: Inhibition of p53 binding to […] (hdm2-GST).

pIC50: −log10 of the molar value. Non-standard residues stand in square brackets, D forms with d. Residues, ends and D or L forms follow the SMILES beside them. Trp(6-Cl) = N[C@@H](Cc1c[nH]c2cc(Cl)ccc12)C(=O)O; Pmp = N[C@@H](Cc1ccc(CP(=O)(O)O)cc1)C(=O)O; Ac3c = NC1(C(=O)O)CC1; Aib = CC(C)(N)C(=O)O

The compound `CSCC[C@H](NC(=O)[C@H](Cc1ccccc1)NC(C)=O)C(=O)NC(C)(C)C(=O)N[C@@H](Cc1ccc(CP(=O)(O)O)cc1)C(=O)N[C@@H](Cc1c[nH]c2cc(Cl)ccc12)C(=O)N[C@@H](CCC(=O)O)C(=O)NC1(C(=O)N[C@@H](CC(C)C)C(N)=O)CC1` [Ac-Phe-Met-Aib-Pmp-6-Cl-Trp-Glu-Ac3c-Leu-NH2, GST-hdm2 binding peptide] (Ac-FM[Aib][Pmp][Trp(6-Cl)]E[Ac3c]L-NH2) gave a pIC50 of 8.30.

Source of the values: BindingDB's records for doi:10.1021/jm010468s (Pfizer, 2002).
